# Experimental data taken from ChEMBL document CHEMBL1137896, “Synthesis and AMPA receptor antagonistic activity of a novel 7-imidazolyl-6-trifluoromethyl quinoxalinecarboxylic acid with a substituted phenyl group and improved its good physicochemical properties by introduced CF3 group” (Bioorg Med Chem Lett, 2004).
# Columns and labels:
# [1] = molecular target: Glutamate receptor ionotropic, AMPA (Rattus norvegicus, UniProt P19490+P19491+P19492+P19493); assay: Displacement of [3H]AMPA (5 nM) from ionotropic glutamate receptor AMPA of rat cerebral cortex synaptic membrane preparation; assay type: tissue-based
# [2] = test system: Rattus norvegicus; assay: In vivo protective effect in focal ischemia rat model was determined after intravenous dosage at 2.5 mg/kg/h for 4 hr; assay type: functional
# [3] = Solubility at pH 7.4; assay type: physicochemical; conditions: buffer
# [4] = test system: Rattus norvegicus; assay: In vivo protective effect in focal ischemia rat model was determined after intravenous dosage at 15 mg/kg/h for 4 hr; assay type: functional
# [5] = test system: Rattus norvegicus; assay: In vivo protective effect in focal ischemia rat model was determined after intravenous dosage at 30 mg/kg/h for 4 hr; assay type: functional
compound,measurement,setting,value
O=C(O)c1nc2cc(-n3ccnc3)c(C(F)(F)F)cc2nc1O,Ki,[1],86 nM
O=C(Nc1ccc(Br)cc1)OCc1cn(-c2cc3nc(C(=O)O)c(O)nc3cc2C(F)(F)F)cn1,Ki,[1],20 nM
O=C(Nc1ccc(C(=O)O)cc1)OCc1cn(-c2cc3nc(C(=O)O)c(O)nc3cc2[N+](=O)[O-])cn1,Protection,[2],3
same,solubility,[3],4860 µg/mL
O=C(Nc1ccc(C(=O)O)cc1)OCc1cn(-c2cc3nc(C(=O)O)c(O)nc3cc2C(F)(F)F)cn1,Protection,[2],2.7
same,solubility,[3],8290 µg/mL
same,Ki,[1],16 nM
O=C(NCc1ccccc1)OCc1cn(-c2cc3nc(C(=O)O)c(O)nc3cc2C(F)(F)F)cn1,Ki,[1],190 nM
O=C(Nc1ccc(C(F)(F)F)cc1)OCc1cn(-c2cc3nc(C(=O)O)c(O)nc3cc2C(F)(F)F)cn1,Ki,[1],29 nM
O=C(Nc1ccccc1)OCc1cn(-c2cc3nc(C(=O)O)c(O)nc3cc2C(F)(F)F)cn1,Ki,[1],23 nM
O=C(Nc1cc(Cl)cc(Cl)c1)OCc1cn(-c2cc3nc(C(=O)O)c(O)nc3cc2C(F)(F)F)cn1,Ki,[1],13 nM
O=c1[nH]c2cc(-n3ccnc3)c([N+](=O)[O-])cc2[nH]c1=O [YM-90K],Protection,[4],2.8
same,solubility,[3],1000 µg/mL
Cc1ccc(NC(=O)OCc2cn(-c3cc4nc(C(=O)O)c(O)nc4cc3C(F)(F)F)cn2)cc1,Ki,[1],20 nM
O=C(Nc1cccc(Br)c1)OCc1cn(-c2cc3nc(C(=O)O)c(O)nc3cc2C(F)(F)F)cn1,Ki,[1],5.2 nM
O=C(O)Cn1c(=O)c(=O)[nH]c2cc([N+](=O)[O-])c(-n3ccnc3)cc21 [ZONAMPANEL],solubility,[3],> 5000 µg/mL
same,Protection,[5],0.5
O=C(Nc1cccc(C(=O)O)c1)OCc1cn(-c2cc3nc(C(=O)O)c(=O)[nH]c3cc2C(F)(F)F)cn1,Ki,[1],35 nM
COc1ccc(NC(=O)OCc2cn(-c3cc4nc(C(=O)O)c(O)nc4cc3C(F)(F)F)cn2)cc1,Ki,[1],30 nM
